Results as given in ChEMBL document CHEMBL5230088 (Eur J Med Chem, 2020).

Key:
[1] = Cytotoxicity against African green monkey Vero E6 cells; assay type: toxicity, cell-based, Vero C1008; details: chlorocebus sabaeus
[2] = tested on: Middle East respiratory syndrome-related coronavirus; experiment: Antiviral activity against MERS-CoV infected in HLE cells assessed as inhibition of viral replication; assay type: functional, organism-based
[3] = tested on: Middle East respiratory syndrome-related coronavirus; experiment: Antiviral activity against MERS-CoV infected in HAE cells; assay type: functional, organism-based
[4] = tested on: SARS-CoV-2; experiment: Antiviral activity against SARS-CoV-2 infected in HAE cells assessed as reduction in viral infection; assay type: functional, organism-based; details: Severe acute respiratory syndrome coronavirus 2, HAE
[5] = tested on: Human coronavirus OC43; experiment: Antiviral activity against HCoV-OC43; assay type: functional, organism-based; details: Betacoronavirus 1
[6] = Cytotoxicity against human Huh-7 cells by celltiter-glo Assay; assay type: toxicity, cell-based
[7] = tested on: Murine hepatitis virus; experiment: Antiviral activity against MHV infected in mouse Astrocytoma delayed brain tumor (DBT) cells; assay type: functional, organism-based; details: Murine coronavirus, Astrocytoma delayed brain tumor (DBT) cell
[8] = Cytotoxicity against mouse Astrocytoma delayed brain tumor (DBT) cells; assay type: toxicity, cell-based, Astrocytoma delayed brain tumor (DBT) cell
[9] = Antiviral activity against Porcine delta coronavirus assessed as reduction in viral replication; assay type: functional, Porcine deltacoronavirus
[10] = tested on: Ebolavirus; experiment: Antiviral activity against EBOV infected in human endothelial cells assessed as reduction in viral replication; assay type: functional, organism-based; details: Orthoebolavirus
[11] = tested on: Ebolavirus; experiment: Antiviral activity against EBOV infected in human Huh-7 cells assessed as reduction in viral replication; assay type: functional, organism-based; details: Orthoebolavirus
[12] = tested on: Ebolavirus; experiment: Antiviral activity against EBOV infected in human primary macrophage cells assessed as reduction in viral replication; assay type: functional, organism-based; details: Orthoebolavirus
[13] = tested on: Ebolavirus; experiment: Antiviral activity against EBOV infected in HFF assessed as reduction in viral replication; assay type: functional, organism-based; details: Orthoebolavirus
[14] = tested on: Ebolavirus; experiment: Antiviral activity against EBOV infected in human HeLa cells assessed as reduction in viral replication; assay type: functional, organism-based; details: Orthoebolavirus
[15] = tested on: Ebolavirus; experiment: Antiviral activity against EBOV infected in rhesus monkey model assessed as protection against viral infection at 10 mg/kg, iv administered once daily fir 12 days relative to control; assay type: functional; details: time 12 day
[16] = tested on: Nipah virus; experiment: Antiviral activity against NiV by virus titre reduction assay; assay type: functional, organism-based; details: Henipavirus nipahense
[17] = tested on: Nipah virus; experiment: Antiviral activity against NiV by antigen reduction assay; assay type: functional, organism-based; details: Henipavirus nipahense
[18] = tested on: Nipah virus; experiment: Antiviral activity against NiV by reporter assay; assay type: functional, organism-based; details: Henipavirus nipahense
[19] = tested on: Nipah virus; experiment: Antiviral activity against NiV by cytopathic effect assay; assay type: functional, organism-based; details: Henipavirus nipahense
[20] = tested on: Respiratory syncytial virus; experiment: Antiviral activity against RSV; assay type: functional, organism-based; details: human respiratory syncytial virus
[21] = tested on: Junin virus; experiment: Antiviral activity against Argentinian mammarenavirus assessed as inhibition of viral replication; assay type: functional, organism-based; details: Mammarenavirus juninense
[22] = tested on: Lassa virus; experiment: Antiviral activity against Lassa virus assessed as inhibition of viral replication; assay type: functional, organism-based; details: Mammarenavirus lassaense
[23] = Prodrug conversion in rhesus monkey plasma assessed as NTP formation at 10 mg/kg; assay type: ADME, organism-based, Macaca mulatta; details: in vivo
[24] = Prodrug conversion in mouse lungs assessed as NTP formation at 10 mg/kg; assay type: ADME, organism-based, Lung; details: in vivo

## CCC(CC)COC(=O)[C@H](C)N[P@](=O)(OC[C@H]1O[C@@](C#N)(c2ccc3c(N)ncnn23)[C@H](O)[C@@H]1O)Oc1ccccc1
[1]
  CC50: > 100000 nM
[2]
  IC50: 25 nM
[3]
  EC50: 74 nM
[4]
  EC50: 69 nM
[5]
  EC50: 150 nM
[6]
  CC50: > 10000 nM
[7]
  EC50: 30 nM
[8]
  CC50: 39000 nM
[9]
  EC50: 20 nM
[10]
  EC50: 60 nM
[11]
  EC50: 60 nM
[12]
  EC50: 60 nM
[13]
  EC50: 60 nM
[14]
  EC50: 60 nM
[15]
  Activity: 100%
[16]
  EC50: 29 nM
[17]
  EC50: 29 nM
[18]
  EC50: 29 nM
[19]
  EC50: 29 nM
[20]
  EC50: 19 nM
  EC90: 51 nM
[21]
  EC50: 470 nM
  EC90: 1330 nM
[22]
  EC50: 1480 nM
  EC90: 2800 nM
[23]
  Drug metabolism: 30 µmol/L
[24]
  Drug metabolism: 2 µmol/L
